Data taken from patent US20230194505A1, “DETERMINING DRUG EFFECTS USING COMBINATION OF MEASUREMENTS” (Organos, Inc., priority 2020, published 2023).
Where two headings read alike, the source gives them in different places.

Legend:
zebrafish cardiomyocytes = conditions: 1 μM, data from Nemtsas et al. 2010; cited from earlier work
human cardiomyocytes = conditions: cited from earlier work
hiPSC-CMs = assay: Conduction velocity computed from measurements of the extracellular potential in a collection of hiPSC-CMs; format: cell-based, human; conditions: doses 1-10 μM
Description: From the U data 430, we include the value at each time point and each electrode (see (14)), and the conduction velocity is computed using the time points in which U crosses 0 mV after the peak in different electrodes (see (15) and FIG. 1). Given that U is measured at each electrode, another metric can be the time tcv for the U data 430 to go back to zero. Another metric uses the measurements at each of the time points (shown as separate dots 432; a sum of the square of the differences (or absolute value) between the model output and measured values can be summed.
where cv denotes the conduction velocity (in cm/s) computed from U recorded in the electrodes. More specifically, the conduction velocity is computed as the distance between the center of the two electrodes marked as a and b in FIG. 1 divided by the time between U crosses 0 mV after the peak in these two electrodes (see FIG. 4). The two electrodes used could be any two electrodes in the simulation.
One of the advantages of including measurements of the extracellular potential in addition to optical measurements of V and Ca in the inversion procedure is that the extracellular measurements can be used to estimate the conduction velocity of the cell collection. This information could be useful for determining drug effects on the INa current (see FIG. 6). […]

dog cardiomyocytes = conditions: 50 nM, paced at 1 Hz, data from Jost et al. 2013; cited from earlier work
[1] = system: rabbit ventricular myocyte; conditions: data from Baczkó et al. 2016, cited from earlier work
[2] = 1 μM, data from Bussek et al. (B)
[3] = 1 μM, data from Jost et al. 2005 (J)
[4] = 50 nM, paced at 1 Hz, data from Jost et al. 2013
[5] = 30 μM, data from Baczkó et al. 2016 (B)
[6] = 30 μM, data from Orvos et al. 2019 (O)

**Q.** For `Cc1cccc(CCN2CCC(C(=O)c3ccc(NS(C)(=O)=O)cc3)CC2)n1` [E-4031], which “APD50, Zebrafish drug measured (change vs control)” value (zebrafish cardiomyocytes) is on record?
**A.** +38.7%

**Q.** And the “APD90, Zebrafish drug measured (change vs control)” value (zebrafish cardiomyocytes)?
**A.** +24.1%

**Q.** And the “APD50, Human, drug measured (B) (change vs control)” value (human cardiomyocytes; [2])?
**A.** +27.7%

**Q.** And the “APD90, Human, drug measured (B) (change vs control)” value (human cardiomyocytes; [2])?
**A.** +31.2%

**Q.** And the “APD50, Human drug measured (J) (change vs control)” value (human cardiomyocytes; [3])?
**A.** +54.2%

**Q.** And the “APD90, Human drug measured (J) (change vs control)” value (human cardiomyocytes; [3])?
**A.** +65.1%

**Q.** For `O=C(NCC1CCCCN1)c1cc(OCC(F)(F)F)ccc1OCC(F)(F)F` (stereo not drawn) [Flecainide], which “Effect of increasing drug dose on conduction velocity” value (hiPSC-CMs) is on record?
**A.** the conduction velocity is decreased

**Q.** With `CN(CCOc1ccc(NS(C)(=O)=O)cc1)CCc1ccc(NS(C)(=O)=O)cc1` [dofetilide] as the molecule, how does the “APD50, Dog, drug measured (change vs control)” value (dog cardiomyocytes) read?
**A.** +17.5%

**Q.** And the “APD50, Human, drug measured (change vs control)” value (human cardiomyocytes; [4])?
**A.** +33.3%

**Q.** And the “APD90, Human, drug measured (change vs control)” value (human cardiomyocytes; [4])?
**A.** +44.3%

**Q.** Which “APD50, Rabbit, drug measured (change vs control)” value ([1]; 10 μM) does the source give for `CC(C)NCC(O)c1ccc(NS(C)(=O)=O)cc1` (stereo not drawn) [sotalol] here?
**A.** +21.2%

**Q.** And the “APD90, Rabbit, drug measured (change vs control)” value ([1]; 10 μM)?
**A.** +19.6%

**Q.** What about the “APD50, Rabbit, drug measured (change vs control)” value ([1]; 52 μM) of the same molecule?
**A.** +54.3%

**Q.** What about the “APD90, Rabbit, drug measured (change vs control)” value ([1]; 52 μM) of the same molecule?
**A.** +54.1%

**Q.** And the “APD50, Human, drug measured (B) (change vs control)” value (human cardiomyocytes; [5])?
**A.** +32.3%

**Q.** And the “APD90, Human, drug measured (B) (change vs control)” value (human cardiomyocytes; [5])?
**A.** +37.5%

**Q.** And the “APD50, Human, drug measured (O) (change vs control)” value (human cardiomyocytes; [6])?
**A.** +20.6%

**Q.** And the “APD90, Human, drug measured (O) (change vs control)” value (human cardiomyocytes; [6])?
**A.** +28.2%
